This experiment has as its system BT20 Cell. Description: Cancer Cell Lysate Total L-Glutamate Assay. In kind it is cell-based. The note with it: Homo sapiens, BT-20, 2 h, total L-glutamate in cell lysate, BT20 cells, 2 hour incubation with test compound. Here is the method: Cancer Cell Lysate Total L-Glutamate Assay
Cancer cell lines (BT20, HCT116, SKOV3, HCC70, SUM149, MDA-MB-231, etc.) were plated in 96 well plates and were used for the total L-glutamate assay when the monolayer was ca. 80% confluent. The media was changed and fresh media containing L-glutamine was added to the 96 well plates, just before incubation of the cells with test compound. The test compound was diluted in 100% DMSO using a two-fold or three-fold serial dilution. Small volumes of the dilutions of test compound were added to the 96 well plates so the final DMSO concentration was 0.5% v/v in the cell culture medium. The cells were incubated at 37° C., 5% CO2, and 95% air for 2 hours. Following the 2 hour incubation, the cells were washed with water 2 times. After the last water wash, 100 μL of 50 mM Tris-HCl pH 7.4 and 0.01% Tween-20 was added to each well and the plate was frozen at −80° C. The 96 well plate was frozen and thawed a total of 3 times and then sonicated for 5 min at 4° C. in a bath sonicator. Following sonication, the 96 well plate was centrifuged for 5 min at 1000 rpm and 10 μL of the supernatant was transferred to a 384 well assay plate.
Total L-glutamate (L-glutamic acid) in the cell lysis supernatant was detected using glutamate oxidase, horseradish peroxidase and Amplex Red reagent (10-acetyl-3,7-dihydroxy phenoxazine, Invitrogen # A22177). In this assay, L-glutamate was oxidized by glutamate oxidase to produce alpha-ketoglutarate (2-oxopentane dioic acid), NH3 and H202. The H2O2 (hydrogen peroxide) was used by horseradish peroxidase (HRP) to oxidize the Amplex Red Reagent to resorufin which is a fluorescent molecule. When resorufin is excited with light with a wavelength 530-560 nm, it emits light at approximately 585 nm. For detection of total L-glutamate in 10 μL of lysate, 15 μL of an enzyme mixture was added to each well of the 384 well assay plate. The enzyme mixture consisted of 50 mM Tris-HCl pH 7.4, 0.01% Tween-20, 50 μM Amplex Red reagent (final concentration), 0.04 U/mL L-glutamate oxidase (final concentration), and 0.125 U/mL HRP (final concentration). The 384 well assay plate was incubated at room temperature for 5 min and then the fluorescence intensity of each well was measured at 585 nm using a 530-560 nm excitation wavelength in a plate based fluorimeter such as an LJL Analyst or a Tecan Infinite plate reader. Standard curves were constructed for this assay using dilutions of a L-glutamate standard. IC50 were calculated by plotting the relative fluorescent units vs log of the inhibitor concentration and fitting the data to the four parameter logistic equation.
Reference: Chapman J. and Zhou M. (1999) Microplate-based fluorometric methods for the enzymatic determination of I-glutamate: application in measuring I-glutamate in food samples. Analytica Chim Acta 402:47-52.

The term IC50 denotes the point on the concentration scale where inhibition reaches its midpoint.

The structures appear in SMILES notation.

In the case of `O=C(Cc1ccccc1)Nc1ccc(CC2CCC(c3nnc(NC(=O)Cc4ccccn4)s3)C2)nn1` (racemic) [Example 1, 2-phenyl-N-(6-{[(cis)-3-{5-[(pyridine-2-ylacetyl)amino]-1,3,4-thiadiazol-2-yl}cyclopentyl]methyl}pyridazin-3-yl)acetamide], the IC50 amounted to 0.7 nM.
The compound `O=C(Cc1ccccn1)Nc1nnc(CC2CCC(c3nnc(NC(=O)Cc4ccccn4)s3)C2)s1` (racemic) [Example 3, (rac)-2-(pyridin-2-yl)-N-(5-{[(cis)-3-{5-[(pyridin-2-ylacetyl)amino]-1,3,4-thiadiazol-2-yl}cyclopentyl]methyl}-1,3,4-thiadiazol-2-yl)acetamide] had an IC50 of 6.4 nM.
Compound `O=C(Cc1ccccc1)Nc1nnc(CC2CCC(c3nnc(NC(=O)Cc4ccccc4)s3)C2)s1` (racemic) [Example 9, (rac)-2-phenyl-N-(5-{[(cis)-3-{5-[(phenylacetyl)amino]-1,3,4-thiadiazol-2-yl}cyclopentyl]methyl}-1,3,4-thiadiazol-2-yl)acetamide] had an IC50 of 17 nM.
Next, `CC(=O)Nc1nnc(C2CCC(Cc3nnc(NC(=O)c4ccccc4)s3)C2)s1` (racemic) [Example 11, N-[5-({(cis)-3-[5-(acetylamino)-1,3,4-thiadiazol-2-yl]cyclopentyl}methyl)-1,3,4-thiadiazol-2-yl]benzamide]: 47.9 nM.
To `CC(=O)Nc1nnc(C2CCC(Cc3nnc(NC(=O)Cc4ccccc4)s3)C2)s1` (racemic) [Example 15, N-[5-({(cis)-3-[5-(acetylamino)-1,3,4-thiadiazol-2-yl]cyclopentyl}methyl)-1,3,4-thiadiazol-2-yl]-2-phenylacetamide] belongs 10.6 nM; to `CC(=O)Nc1nnc(C2CCC(Cc3nnc(NC(=O)Cc4ccccn4)s3)C2)s1` (racemic) [Example 18, (rac)-N-[5-({(cis)-3-[5-(acetylamino)-1,3,4-thiadiazol-2-yl]cyclopentyl}methyl)-1,3,4-thiadiazol-2-yl]-2-(pyridin-2-yl)acetamide], 79.7 nM; to `CCNc1nnc(C2CCC(Cc3nnc(NC(=O)Cc4ccccn4)s3)C2)s1` (racemic) [Example 24, (rac)-N-[5-({(cis)-3-[5-(ethylamino)-1,3,4-thiadiazol-2-yl]cyclopentyl}methyl)-1,3,4-thiadiazol-2-yl]-2-(pyridin-2-yl)acetamide], 78.9 nM.
Next, `O=C(Cc1ccccn1)Nc1ccc(C2CC3(C2)CC(c2ccc(NC(=O)Cc4ccccn4)nn2)C3)nn1` (racemic) [Example 25, N,N′-(spiro[3.3]heptane-2,6-diyldipyridazine-6,3-diyl)bis[2-(pyridin-2-yl)acetamide]]: 1 nM; `O=C(Cc1ccccn1)Nc1ccc(C2CCC(Cc3nnc(NC(=O)Cc4ccccn4)s3)C2)nn1` (racemic) [Example 26, 2-(pyridin-2-yl)-N-{5-[(3-{6-[(pyridin-2-ylacetyl)amino]pyridazin-3-yl}cyclopentyl)methyl]-1,3,4-thiadiazol-2-yl}acetamide]: 1.3 nM.
`CC(C)(C)C(=O)Nc1nnc(CC2CCC(c3nnc(NC(=O)C(C)(C)C)s3)C2)s1` (racemic) [Example 27, (rac)-N-(5-{[(cis)-3-{5-[(2,2-dimethylpropanoyl)amino]-1,3,4-thiadiazol-2-yl}cyclopentyl]methyl}-1,3,4-thiadiazol-2-yl)-2,2-dimethylpropanamide]: the 50% inhibitory concentration (IC50) was 242 nM.
To `CC(C(=O)Nc1nnc(CC2CCC(c3nnc(NC(=O)C(C)c4cccnc4)s3)C2)s1)c1cccnc1` (racemic) [Example 30, (rac)-2-(pyridin-3-yl)-N-(5-{[(cis)-3-(5-{[2-(pyridin-3-yl)propanoyl]amino}-1,3,4-thiadiazol-2-yl)cyclopentyl]methyl}-1,3,4-thiadiazol-2-yl)propanamide] belongs 1.9 nM.
Turning to `CC(=O)Nc1nnc(C2CCC(Cc3nnc(N)s3)C2)s1` (racemic) [Example 42, (rac)-N-(5-{(cis)-3-[(5-amino-1,3,4-thiadiazol-2-yl)methyl]cyclopentyl}-1,3,4-thiadiazol-2-yl)acetamide], the IC50 was 2370 nM.
Next, `CC(=O)Nc1nnc(CC2CCC(c3nnc(NC(=O)Cc4ccccc4)s3)C2)s1` (racemic) [Example 43, (rac)-N-{5-[(cis)-3-{[5-(acetylamino)-1,3,4-thiadiazol-2-yl]methyl}cyclopentyl]-1,3,4-thiadiazol-2-yl}-2-phenylacetamide]: 94.4 nM; `CC(=O)Nc1nnc(C2CCC(Cc3nnc(NC(=O)Cc4ncccn4)s3)C2)s1` (racemic) [Example 46, (rac)-N-[5-({(cis)-3-[5-(acetylamino)-1,3,4-thiadiazol-2-yl]cyclopentyl}methyl)-1,3,4-thiadiazol-2-yl]-2-(pyrimidin-2-yl)acetamide]: 349 nM; `CC(=O)Nc1nnc(C2CCC(Cc3nnc(NC(=O)Cc4cnccn4)s3)C2)s1` (racemic) [Example 47, (rac)-N-[5-({(cis)-3-[5-(acetylamino)-1,3,4-thiadiazol-2-yl]cyclopentyl}methyl)-1,3,4-thiadiazol-2-yl]-2-(pyrazin-2-yl)acetamide]: 512 nM.
To `CC(=O)Nc1nnc(CC2CCC(c3nnc(NC(=O)c4ccccc4)s3)C2)s1` (racemic) [Example 48, (rac)-N-{5-[(cis)-3-{[5-(acetylamino)-1,3,4-thiadiazol-2-yl]methyl}cyclopentyl]-1,3,4-thiadiazol-2-yl}benzamide] belongs 989 nM; to `CC(=O)Nc1nnc(C2CCC(Cc3nnc(NC(=O)Cc4cncnc4)s3)C2)s1` (racemic) [Example 49, (rac)-N-[(cis)-5-({3-[5-(acetylamino)-1,3,4-thiadiazol-2-yl]cyclopentyl}methyl)-1,3,4-thiadiazol-2-yl]-2-(pyrimidin-5-yl)acetamide], 789 nM; to `CC(=O)Nc1nnc(C2CCC(Cc3nnc(NC(=O)Cc4ccc(C)nc4)s3)C2)s1` (racemic) [Example 52, (rac)-N-[5-({(cis)-3-[5-(acetylamino)-1,3,4-thiadiazol-2-yl]cyclopentyl}methyl)-1,3,4-thiadiazol-2-yl]-2-(6-methylpyridin-3-yl)acetamide], 29.8 nM.
To `CC(=O)Nc1nnc(CC2CCC(c3nnc(NC(=O)Cc4ccccn4)s3)C2)s1` (racemic) [Example 55, (rac)-N-{5-[(cis)-3-{[5-(acetylamino)-1,3,4-thiadiazol-2-yl]methyl}cyclopentyl]-1,3,4-thiadiazol-2-yl}-2-(pyridin-2-yl)acetamide] belongs 391 nM.
For the compound `CC(=O)Nc1nnc(C2CCC(C)(c3nnc(NC(C)=O)s3)C2(C)C)s1` (racemic) [Example 60, N,N′-{[-1,2,2-trimethylcyclopentane-1,3-diyl]di-1,3,4-thiadiazole-5,2-diyl}diacetamide], half-maximal inhibition (IC50) was put at 274 nM.
To `O=C(Cc1ccccn1)Nc1nnc(C2CC3(C2)CC(c2nnc(NC(=O)Cc4ccccn4)s2)C3)s1` (racemic) [Example 61, N,N′-(spiro[3.3]heptane-2,6-diyldi-1,3,4-thiadiazole-5,2-diyl)bis[2-(pyridin-2-yl)acetamide]] belongs 1.6 nM; to `CCNc1nnc(C2CCC(Cc3nnc(NC(C)=O)s3)C2)s1` (racemic) [Example 66, (rac)-N-[5-({(cis)-3-[5-(ethylamino)-1,3,4-thiadiazol-2-yl]cyclopentyl}methyl)-1,3,4-thiadiazol-2-yl]acetamide], 1290 nM.

The values are drawn from US10676471B2, “Cycloalkyl-linked diheterocycle derivatives” (Pfizer Inc., priority 2014, dated 2020).
